Data on ten compounds can be found in patent publication US10383861B2, “3-(1H-pyrrolo[2,3-C]pyridin-2-yl)-1H-pyrazolo[3,4-C]pyridines and therapeutic uses thereof” (Samumed, LLC, priority 2015, dated 2019).

Where only a bound is given, the exact number is not on record here.

What all share (format): cell-based
In one assay the test system is IL-6. The experiment in a line: IL-6 inhibition in LPS-stimulated THP-1 cells (HTRF). The settings on record: Homo sapiens; for inhibition at 10 µM: THP-1, read-out: percent inhibition at 10 μM; for EC50: THP-1 cells, LPS 500 ng/mL, 22 hours, IL6 HTRF. As for the experimental part: THP-1 cells were cultured in basal media with 1% FBS for 24 hours before the start of the assay. […] THP-1 cells were plated at 5000 cells/well in the 384-well plates and incubated at 37° C. for 2 h. 500 ng/mL of LPS was added after 2 hours and cells were incubated for another 22 hours at 37° C. Plates were spun in a centrifuge for 1 minute at […] and a mixture of anti-IL6 XL665, and anti-IL6 Cryptate diluted in reconstitution buffer (Cisbio Inc.) was added to each well. Following incubation for 3 hrs at room temperature, Homogeneous Time-Resolved Fluorescence (HTRF) was measured using the Envision (Perkin Elmer) at 665 nm and […]. The ratio of fluorescence at 665 nm to 620 nm was used as a readout for IL6 quantification. All samples were processed in duplicate. Readings were normalized to DMSO treated cells and normalized activities were utilized for EC50 calculations using the dose-response log (inhibitor) vs. response -variable slope (four parameters) nonlinear regression feature available in GraphPad Prism 5.0 (or Dotmatics).
A general note: TR-FRET usually uses a lanthanide donor and a delayed reading to cut background.

In a further assay the test system is Wnt activity. The experiment in a line: Wnt activity screening assay, Sp5-Luc reporter gene in SW480 cells. The settings on record: Homo sapiens; for EC50: Sp5-Luc reporter, SW480 cells, overnight incubation; for inhibition at 10 µM: SW480, read-out: percent inhibition at 10 μM. The source says: The screening assay for Wnt activity is described as follows. Reporter cell lines can be generated by stably transducing cancer cell lines (e.g., colon cancer) or primary cells (e.g., IEC-6 intestinal cells) with a lentiviral construct that includes a Wnt-responsive promoter driving expression of the firefly luciferase gene.
SW480 colon carcinoma cells were transduced with a lentiviral vector expressing luciferase with a human Sp5 promoter consisting of a sequence of eight TCF/LEF binding sites. SW480 cells stably expressing the Sp5-Luc reporter gene and a hygromycin resistance gene were selected by treatment with 150 μg/mL of hygromycin for 7 days. These stably transduced SW480 cells were expanded in cell culture and used for all further screening activities. […] For Sp5-Luc reporter gene assays, the cells were plated at 4,000 cells/well in 384-well plates with medium containing 1% fetal bovine serum and incubated overnight at 37° C. and 5% CO2. Following incubation, 20 μl of BrightGlo luminescence reagent (Promega) was added to each well of the 384-well assay plates. The plates were placed on an orbital shaker for 2 min and then luminescence was quantified using the Envision (Perkin Elmer) plate reader. Readings were normalized to DMSO only treated cells, and normalized activities were utilized for EC50 calculations using the dose-response log (inhibitor) vs. response -variable slope (four parameters) nonlinear regression feature available in GraphPad Prism 5.0 (or Dotmatics).

The subject of another assay is SW480 colon cancer cells. Briefly: Cell viability assay (CellTiter-Blue) in SW480 colon cancer cells. The settings on record: Homo sapiens; for EC50: 96 h, SW480 cell viability, four days, CellTiter-Blue; for inhibition at 10 µM: SW480, read-out: percent inhibition at 10 μM. As for the experimental part:
Representative compounds were screened using the following assay procedure to assess the effect on cell viability as described below.
Approximately 2×10^3 SW480 colon cancer cells were seeded into each well and allowed to incubate in the presence or absence of compound for four days at 37° C./5% CO2. Eight replicates of DMSO-treated cells served as controls and cells treated with compound were performed in duplicate.
After incubation, 20 μL of CellTiter-Blue (Promega) was added to each well allowed to incubate for approximately 3 hours. This reagent was a buffered solution which contains resazurin, metabolically active cells were able to reduce rezarurin (blue) into resorufin (pink) which was highly fluorescent. This measured fluorescence was used as a readout for cell viability.

Assay [1] relates to primary human mesenchymal stem cells (hMSCs). Briefly: Induction of chondrogenesis in hMSCs (nodule count, Rhodamine B/Nile Red). The note with it: 6 days; for EC50: concentration required to induce 50% levels of chondrogenesis vs TGF-β3, read-out: Conc (nM) of 50% TGF-β3 activity; for Emax: relative to TGF-β3 (10 ng/mL) positive control, read-out: Max. Activity as % TGF-β3 activity. The source says:
Representative compounds were screened using primary human mesenchymal stem cells (hMSCs) to determine their ability to induce chondrogenesis (process by which cartilage is developed).
Primary human mesenchymal stem cells (hMSCs) were purchased from Lonza (Walkersville, Md.) and expanded in Mesenchymal Stem Cell Growth Media (Lonza). Cells between passage 3 and 6 were used for the experiments.
To image chondrogenic nodules, the cells were fixed using 4% formaldehyde (Electron Microscopy Sciences), and stained with 2 μg/mL Rhodamine B (Sigma-Aldrich) and 20 μM Nile Red (Sigma-Aldrich) [Johnson K., et.al, A Stem Cell-Based Approach to Cartilage Repair, Science, (2012). […] Number of nodules in each well was normalized to the average of 3 DMSO treated wells on the same plate using Excel (Microsoft Inc.). The normalized averages (fold change over DMSO) of 3 replicate wells for each compound concentration were calculated. Due to solubility limitations of some of the compounds, curve fitting was incomplete leading to inaccurate EC50 determinations.
Using TGF-β3 as a positive control, the concentration of representative compounds required to induce 50% levels of chondrogenesis is reported. In addition, the maximum activity of each compound and the respective dose that each compound reached maximum chondrogenesis activity is reported.

Assay [2] relates to primary human fibroblasts derived from IPF patients (LL29 cells). The experiment in a line: Inhibition of the fibrotic process: αSMA staining in TGF-β1 treated LL29 fibroblasts. The settings on record: Fibroblast; for EC50: 96 h, LL29 cells, TGF-β1 20 ng/mL, 4 days, % αSMA positive cells; for inhibition at 10 µM: read-out: percent inhibition at 10 μM. The procedure: Representative compounds were screened using primary human fibroblasts (derived from IPF patients) treated with TGF-β1 to determine their ability to inhibit the fibrotic process.
LL29 cells are plated at 1,500 cells/well in 80 μL/well F12 medium supplemented with 1% Fetal Bovine Serum. […] Wells treated with TGF-β1 and containing DMSO were used as controls. […] Following incubation for 4 days, SYTOX green nucleic acid stain (Life Technologies [Thermo Fisher Scientific]) was added to the wells at a final concentration of 1 μM and incubated at room temperature for 30 min.

The inhibition is how much of the control response was suppressed. With `Fc1ccc(-c2cncc3[nH]c(-c4n[nH]c5cnc(-c6cncc(CN7CCC(F)(F)C7)c6)cc45)cc23)cc1` [Compound 54, 5-(5-((3,3-Difluoropyrrolidin-1-yl)methyl)pyridin-3-yl)-3-(4-(4-fluorophenyl)-1H-pyrrolo[2,3-c]pyridin-2-yl)-1H-pyrazolo[3,4-c]pyridine], the results for the inhibition at 10 µM in the assay with IL-6 and with SW480 colon cancer cells were 11.2% and 38.6%, respectively. Also, the EC50 is > 10 µM with IL-6; 3.26 µM with Wnt activity; > 10 µM in the assay with SW480 colon cancer cells; 100 nM in assay [1]; 9.98 µM in assay [2]. Further, the Emax in assay [1] turned out to be 78%.
Consider `CN(C)Cc1cncc(-c2cc3c(-c4cc5c(-c6ccncc6)cncc5[nH]4)n[nH]c3cn2)c1` [Compound 125, N,N-Dimethyl-1-(5-(3-(4-(pyridin-4-yl)-1H-pyrrolo[2,3-c]pyridin-2-yl)-1H-pyrazolo[3,4-c]pyridin-5-yl)pyridin-3-yl)methanamine], for which the inhibition at 10 µM in the assay on IL-6 was determined as 0%; in the assay on Wnt activity, 18.7%; with SW480 colon cancer cells, 5.3%; in assay [2] it was 2.9%. Besides, the EC50 is > 10 µM in the assay with IL-6; > 10 µM in the assay with Wnt activity; > 10 µM in the assay with SW480 colon cancer cells; 30 nM in assay [1]; > 10 µM in assay [2]. For the same compound, the Emax in assay [1] was determined as 52%.
On to `c1cncc(-c2cc3c(-c4cc5c(-c6cccnc6)cncc5[nH]4)n[nH]c3cn2)c1` [Compound 88, 5-(Pyridin-3-yl)-3-(4-(pyridin-3-yl)-1H-pyrrolo[2,3-c]pyridin-2-yl)-1H-pyrazolo[3,4-c]pyridine], for which the results for the inhibition at 10 µM (in the assay with IL-6; in the assay on SW480 colon cancer cells; in assay [2]) were 36.6%, 37.4% and 82.9%, respectively. In addition, the EC50 in the assay with IL-6 is > 10 µM; in the assay on Wnt activity, 1.34 µM; with SW480 colon cancer cells it was > 10 µM; in assay [1], 100 nM; in assay [2], > 10 µM. Besides, in assay [1], the Emax stood at 76%.
`Fc1cccc(-c2cncc3[nH]c(-c4n[nH]c5cnc(-c6cncnc6)cc45)cc23)c1` [Compound 27, 3-(4-(3-Fluorophenyl)-1H-pyrrolo[2,3-c]pyridin-2-yl)-5-(pyrimidin-5-yl)-1H-pyrazolo[3,4-c]pyridine]: the EC50 in the assay on IL-6 was found to be 3.06 µM; in the assay on Wnt activity it was 0.584 µM; in the assay with SW480 colon cancer cells it was 1.1 µM; in assay [1], 10 nM; in assay [2], 0.432 µM. In addition, in assay [1], the Emax is 56%.
`CC(C)Nc1cncc(-c2cc3c(-c4cc5c(-c6cc(F)cc(CNS(C)(=O)=O)c6)cncc5[nH]4)n[nH]c3cn2)c1` [Compound 488, N-(3-Fluoro-5-(2-(5-(5-(isopropylamino)pyridin-3-yl)-1H-pyrazolo[3,4-c]pyridin-3-yl)-1H-pyrrolo[2,3-c]pyridin-4-yl)benzyl)methanesulfonamide]: the inhibition at 10 µM was 46.8% with IL-6 and 11% in the assay on SW480 colon cancer cells. Also, the EC50 is > 10 µM in the assay on IL-6, 4.28 µM in the assay on Wnt activity, > 10 µM with SW480 colon cancer cells and 2.59 µM in assay [2]. Besides, in assay [1], the Emax was 17%.
Take `CS(=O)(=O)NCc1cc(F)cc(-c2cncc3[nH]c(-c4n[nH]c5cnc(-c6cncc(CN7CCCC7)c6)cc45)cc23)c1` [Compound 490, N-(3-Fluoro-5-(2-(5-(5-(pyrrolidin-1-ylmethyl)pyridin-3-yl)-1H-pyrazolo[3,4-c]pyridin-3-yl)-1H-pyrrolo[2,3-c]pyridin-4-yl)benzyl)methanesulfonamide]: the inhibition at 10 µM in the assay with IL-6 stood at 0%; with Wnt activity it was 8.5%; with SW480 colon cancer cells, 17.4%; in assay [2], 21.4%. Also, the EC50 (in the assay on IL-6; in the assay with Wnt activity; in the assay with SW480 colon cancer cells; in assay [2]) was > 10 µM in each case. Also, in assay [1], the Emax turned out to be 8%.
Take `CC(C)(C)C(=O)Nc1cncc(-c2cc3c(-c4cc5c(-c6ccc(F)cc6)cncc5[nH]4)n[nH]c3cn2)c1` [Compound 36, N-(5-(3-(4-(4-Fluorophenyl)-1H-pyrrolo[2,3-c]pyridin-2-yl)-1H-pyrazolo[3,4-c]pyridin-5-yl)pyridin-3-yl)pivalamide]: the inhibition at 10 µM with IL-6 was 29.6%. Also, the EC50 in the assay with IL-6 is > 10 µM; with Wnt activity, 1.59 µM; in the assay on SW480 colon cancer cells, 1.1 µM; in assay [2], 0.299 µM.
On the same counts, the results for `CC(C)(C)CC(=O)Nc1cncc(-c2cc3c(-c4cc5c(-c6ccc(F)cc6)cncc5[nH]4)n[nH]c3cn2)c1` [Compound 44, N-(5-(3-(4-(4-Fluorophenyl)-1H-pyrrolo[2,3-c]pyridin-2-yl)-1H-pyrazolo[3,4-c]pyridin-5-yl)pyridin-3-yl)-3,3-dimethylbutanamide] are 16.2%, > 10 µM, 0.679 µM, 3.51 µM and 0.434 µM.
For `CN(C)CCOc1cncc(-c2cc3c(-c4cc5c(-c6cccs6)cncc5[nH]4)n[nH]c3cn2)c1` [Compound 707, N,N-Dimethyl-2-((5-(3-(4-(thiophen-2-yl)-1H-pyrrolo[2,3-c]pyridin-2-yl)-1H-pyrazolo[3,4-c]pyridin-5-yl)pyridin-3-yl)oxy)ethan-1-amine], the values for the inhibition at 10 µM in the assay on IL-6, in the assay on Wnt activity and with SW480 colon cancer cells were 41.3%, 5% and 0%, respectively. Also, the EC50 in the assay with IL-6 was > 10 µM; in the assay on Wnt activity, > 10 µM; with SW480 colon cancer cells, > 10 µM; in assay [2] it was 5.1 µM.
Take `CS(=O)(=O)NCc1cc(F)cc(-c2cncc3[nH]c(-c4n[nH]c5cnc(-c6cncc(NC(=O)C7CCCCC7)c6)cc45)cc23)c1` [Compound 499, N-(5-(3-(4-(3-Fluoro-5-(methylsulfonamidomethyl)phenyl)-1H-pyrrolo[2,3-c]pyridin-2-yl)-1H-pyrazolo[3,4-c]pyridin-5-yl)pyridin-3-yl)cyclohexanecarboxamide]: the inhibition at 10 µM in the assay on IL-6 turned out to be 36.6%; in the assay with Wnt activity, 11.3%; in the assay with SW480 colon cancer cells it was 15.5%; in assay [2], 0%. For the same compound, the EC50 (in the assay on IL-6; with Wnt activity; in the assay with SW480 colon cancer cells; in assay [2]) was > 10 µM throughout.
